Results reported in patent US5409947A, “Cycloheptimidazole derivatives, method of manufacturing the same and therapeutic agents containing these compounds” (Kotobuki Seiyaku Co., Ltd., priority 1992, dated 1995).
Structures can show the parent of a compound that is named as a salt.

target: T1, angiotensin II receptor (Oryctolagus cuniculus, UniProt P34976); test: Angiotensin II receptor antagonistic activity: inhibition of angiotensin II-induced contraction of isolated rabbit thoracic aorta; type: cell-based; details: isolated rabbit thoracic aorta contracted by angiotensin II; from dose-response curve (Schild)
T1 construct: Rabbit aorta thoracic is isolated; from tissue; host or cells: isolated rabbit thoracic aorta
T1 sequence (P34976 1-359): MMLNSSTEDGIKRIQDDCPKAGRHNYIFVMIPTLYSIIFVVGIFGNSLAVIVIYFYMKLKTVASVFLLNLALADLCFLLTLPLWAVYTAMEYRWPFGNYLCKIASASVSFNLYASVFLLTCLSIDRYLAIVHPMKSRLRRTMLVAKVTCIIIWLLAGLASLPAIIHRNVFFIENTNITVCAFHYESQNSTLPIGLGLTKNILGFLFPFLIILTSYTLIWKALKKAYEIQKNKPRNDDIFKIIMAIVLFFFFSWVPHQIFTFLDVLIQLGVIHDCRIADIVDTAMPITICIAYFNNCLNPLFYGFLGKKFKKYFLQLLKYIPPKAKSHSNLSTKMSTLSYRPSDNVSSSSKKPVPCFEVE
Description: Angiotensin II receptor antagonistic activity experiments are carded out according to P. C. Wong et al. (Hypertension. 15, 823 (1990)).
Rabbit aorta thoracic is isolated, contracted by angiotensin II. The inhibition of contraction by the compound (1) is expressed as pA2 from dose-response curve (Schild, Brit. J. Pharmacol. 14, 48 (1959)).

pA2	SMILES
7.95	Cc1nc2ccccc(=O)c2n1Cc1ccc(-c2ccccc2-c2nn[nH]n2)cc1 [Compound 1, 5-[2-(4-(2-Methyl-8-oxo-1(8H)-cycloheptimidazolyl)methylbiphenylyl)]tetrazole]

same assay, conditions: isolated rabbit thoracic aorta contracted by angiotensin II; from dose-response curve (Schild); read-out: pA2 (converted)

Kb	SMILES
7.59 nM	CC(C)c1nc2ccccc(=O)c2n1Cc1ccc(-c2ccccc2-c2nn[nH]n2)cc1 [Compound 9, 5-[2-(4-(2-Isopropyl-8-oxo-1(8H)-cycloheptimidazolyl)methylbiphenylyl)]tetrazole]
0.316 nM	CCCCc1nc2c(n1Cc1ccc(-c3ccccc3-c3nn[nH]n3)cc1)C(=O)CCCC2 [18 - K salt]
0.501 nM	CCCCc1nc2ccccc(=O)c2n1Cc1ccc(-c2ccccc2-c2nn[nH]n2)cc1 [Compound 4, 5-[2-(4-(2-Butyl-8-oxo-1(8H )-cycloheptimidazolyl)methylbiphenylyl)]tetrazole]
5.01 nM	Cc1nc2c(n1Cc1ccc(-c3ccccc3-c3nn[nH]n3)cc1)C(=O)CCCC2 [Compound 15, 5-[2-(4-(2-Methyl-8-oxo-5,6,7,8-tetrahydro-1-cycloheptimidazolyl)methylbiphenylyl)]tetrazole]
0.851 nM	CC(C)Cc1nc2c(n1Cc1ccc(-c3ccccc3-c3nn[nH]n3)cc1)C(=O)CCCC2 [Compound 25]
63.1 nM	CCCCc1nc2c(n1Cc1ccc(-c3ccccc3-c3nn[nH]n3)cc1)CCCCC2=O [Compound 20, 5-[2-(4-(2-Butyl-4-oxo-5,6,7,8-tetrahydro-1-cycloheptimidazolyl)methylbiphenylyl)]tetrazole]
1 nM	CCc1nc2c(n1Cc1ccc(-c3ccccc3-c3nn[nH]n3)cc1)C(=O)CCCC2 [Compound 16, 5-[2-(4-(2-Ethyl-8-oxo-5,6,7,8-tetrahydro-1-cycloheptimidazolyl)methylbiphenylyl)]tetrazole]
1.78 nM	CC(C)c1nc2c(n1Cc1ccc(-c3ccccc3-c3nn[nH]n3)cc1)C(=O)CCCC2 [Compound 24]
0.126 nM	CCCc1nc2c(n1Cc1ccc(-c3ccccc3-c3nnn[nH]3)cc1)C(=O)CCCC2 [Compound 17, 5-[2-(4-(2-Propyl-8-oxo-5,6,7,8-tetrahydro-1-cycloheptimidazolyl)methylbiphenylyl)]tetrazole]
9.77 nM	CCCCc1nc2c(n1Cc1ccc(-c3ccccc3-c3nn[nH]n3)cc1)C(O)CCCC2 (centres unmarked) [Compound 26, 5-[2-(4-(2-Butyl-8-hydroxy-1,4,5,6,7,8-hexahydro-1-cycloheptimidazolyl)methylbiphenylyl)]tetrazole]
0.398 nM	CCCCCc1nc2c(n1Cc1ccc(-c3ccccc3-c3nn[nH]n3)cc1)C(=O)CCCC2 [Compound 19, 5-[2-(4-(2-Pentyl-8-oxo-5,6,7,8-tetrahydro-1-cycloheptimidazolyl)methylbiphenylyl)]tetrazole]
63.1 nM	CCCCc1nc2c(n1Cc1ccc(-c3ccccc3-c3nn[nH]n3)cc1)CCCCC2O (centres unmarked) [Compound 27, 5-[2-(4-(2-Butyl-4-hydroxy-1,4,5,6,7,8-hexahydro-1-cycloheptimidazolyl)methylbiphenylyl)]tetrazole]
20 nM	CCCCc1nc2c(n1Cc1ccc(-c3ccccc3-c3nn[nH]n3)cc1)CCCCC2 [Compound 11, 5-[2-(4-(2-Butyl-1,4,5,6,7,8-hexahydro-1-cycloheptimidazolyl)methylbiphenylyl)]tetrazole]
0.501 nM	CCCCc1nc2c(n1Cc1ccc(-c3ccccc3-c3nn[nH]n3)cc1)C(=O)CCCC2 [Compound 18, 5-[2-(4-(2-Butyl-8-oxo-5,6,7,8-tetrahydro-1-cycloheptimidazolyl)methylbiphenylyl)]tetrazole]
0.331 nM	CCCc1nc2ccccc(=O)c2n1Cc1ccc(-c2ccccc2-c2nn[nH]n2)cc1 [Compound 3, 5-[2-(4-(2-Propyl-8-oxo-1(8H)-cycloheptimidazolyl)methylbiphenylyl)]tetrazole]
2 nM	CCc1nc2ccccc(=O)c2n1Cc1ccc(-c2ccccc2-c2nn[nH]n2)cc1 [Compound 2, 5-[2-(4-(2-Ethyl-8-oxo-1(8H)-cycloheptimidazolyl)methylbiphenylyl)]tetrazole]
